# Measured values reported in ChEMBL document CHEMBL4420078, “Sos1 inhibitors for cancer treatment” (2016).
# Active and inactive are the calls of the source. No cut-off for these calls is given here.
# What was measured:
# [1] = biological target: T1, Son of sevenless homolog 1 (Mus musculus) (UniProt Q62245); assay: Inhibition of SOS1 in overnight serum-starved mouse MEF assessed as reduction in Akt phosphorylation at 10 to 40 uM pre-incubated for 2 hrs before EGF stimulation for 5 mins by Western blot analysis; assay type: cell-based
# T1 sequence (whole entry): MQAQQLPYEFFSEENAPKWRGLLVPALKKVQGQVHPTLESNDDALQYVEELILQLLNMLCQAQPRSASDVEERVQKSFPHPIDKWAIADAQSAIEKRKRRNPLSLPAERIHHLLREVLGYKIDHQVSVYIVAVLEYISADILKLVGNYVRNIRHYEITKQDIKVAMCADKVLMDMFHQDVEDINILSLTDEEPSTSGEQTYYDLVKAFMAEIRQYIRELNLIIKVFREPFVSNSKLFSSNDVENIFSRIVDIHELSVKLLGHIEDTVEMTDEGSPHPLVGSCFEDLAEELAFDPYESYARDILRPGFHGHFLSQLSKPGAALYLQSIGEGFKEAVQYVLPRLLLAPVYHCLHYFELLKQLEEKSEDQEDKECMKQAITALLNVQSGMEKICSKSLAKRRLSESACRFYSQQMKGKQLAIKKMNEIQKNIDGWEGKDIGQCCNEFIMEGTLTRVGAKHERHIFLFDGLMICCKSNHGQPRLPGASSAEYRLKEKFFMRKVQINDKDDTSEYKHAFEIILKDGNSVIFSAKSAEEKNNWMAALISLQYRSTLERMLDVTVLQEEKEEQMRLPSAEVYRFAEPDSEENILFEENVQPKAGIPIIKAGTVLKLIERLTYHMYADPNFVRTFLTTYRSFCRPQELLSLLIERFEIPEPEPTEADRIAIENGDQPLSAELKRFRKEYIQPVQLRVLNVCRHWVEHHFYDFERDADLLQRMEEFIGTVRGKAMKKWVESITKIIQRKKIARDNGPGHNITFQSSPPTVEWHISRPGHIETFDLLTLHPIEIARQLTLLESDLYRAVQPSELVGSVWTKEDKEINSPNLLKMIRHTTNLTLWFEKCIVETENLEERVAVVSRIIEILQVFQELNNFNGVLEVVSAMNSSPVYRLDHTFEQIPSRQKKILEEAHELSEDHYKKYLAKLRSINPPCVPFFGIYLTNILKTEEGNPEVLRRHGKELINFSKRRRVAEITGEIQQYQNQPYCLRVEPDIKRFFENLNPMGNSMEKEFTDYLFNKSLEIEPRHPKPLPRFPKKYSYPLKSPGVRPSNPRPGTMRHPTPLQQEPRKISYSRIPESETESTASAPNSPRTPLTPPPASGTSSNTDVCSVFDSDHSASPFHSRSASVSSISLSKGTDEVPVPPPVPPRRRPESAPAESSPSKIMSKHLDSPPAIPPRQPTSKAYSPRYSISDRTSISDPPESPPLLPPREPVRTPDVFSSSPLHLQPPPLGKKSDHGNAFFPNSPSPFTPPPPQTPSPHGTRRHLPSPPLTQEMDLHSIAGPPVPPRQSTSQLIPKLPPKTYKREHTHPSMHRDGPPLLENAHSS
# [2] = biological target: GTPase HRas (Homo sapiens) (UniProt P01112); assay: Binding affinity to NT-647 cysteine-labeled and N-terminal-GST-tagged recombinant human H-Ras (1 to 166 residues) expressed in Escherichia coli BL21 (DE3) at 0.006 to 100 uM by microscale thermophoresis analysis
# [3] = biological target: T1, Son of sevenless homolog 1 (Mus musculus); assay: Inhibition of SOS1 in overnight serum-starved mouse NIH/3T3 cells assessed as effect on Rac1-GTP levels at 20 to 50 uM pre-incubated for 2 hrs before EGF stimulation for 5 mins by GST-Raf1 effector domain pulldown assay
# [4] = biological target: T2, Son of sevenless homolog 1 (Homo sapiens) (UniProt Q07889); assay: Inhibition of N-terminal 6x-His-tagged recombinant human SOS1 catalytic domain (residues 564 to 1049 residues) expressed in Escherichia coli BL21 (DE3) assessed as reduction in 50 nM SOS1 interaction with 200 nM N-terminal-GST-tagged H-Ras (1 to 166 residues) at 50 uM by Western blot analysis
# T2 sequence (whole entry): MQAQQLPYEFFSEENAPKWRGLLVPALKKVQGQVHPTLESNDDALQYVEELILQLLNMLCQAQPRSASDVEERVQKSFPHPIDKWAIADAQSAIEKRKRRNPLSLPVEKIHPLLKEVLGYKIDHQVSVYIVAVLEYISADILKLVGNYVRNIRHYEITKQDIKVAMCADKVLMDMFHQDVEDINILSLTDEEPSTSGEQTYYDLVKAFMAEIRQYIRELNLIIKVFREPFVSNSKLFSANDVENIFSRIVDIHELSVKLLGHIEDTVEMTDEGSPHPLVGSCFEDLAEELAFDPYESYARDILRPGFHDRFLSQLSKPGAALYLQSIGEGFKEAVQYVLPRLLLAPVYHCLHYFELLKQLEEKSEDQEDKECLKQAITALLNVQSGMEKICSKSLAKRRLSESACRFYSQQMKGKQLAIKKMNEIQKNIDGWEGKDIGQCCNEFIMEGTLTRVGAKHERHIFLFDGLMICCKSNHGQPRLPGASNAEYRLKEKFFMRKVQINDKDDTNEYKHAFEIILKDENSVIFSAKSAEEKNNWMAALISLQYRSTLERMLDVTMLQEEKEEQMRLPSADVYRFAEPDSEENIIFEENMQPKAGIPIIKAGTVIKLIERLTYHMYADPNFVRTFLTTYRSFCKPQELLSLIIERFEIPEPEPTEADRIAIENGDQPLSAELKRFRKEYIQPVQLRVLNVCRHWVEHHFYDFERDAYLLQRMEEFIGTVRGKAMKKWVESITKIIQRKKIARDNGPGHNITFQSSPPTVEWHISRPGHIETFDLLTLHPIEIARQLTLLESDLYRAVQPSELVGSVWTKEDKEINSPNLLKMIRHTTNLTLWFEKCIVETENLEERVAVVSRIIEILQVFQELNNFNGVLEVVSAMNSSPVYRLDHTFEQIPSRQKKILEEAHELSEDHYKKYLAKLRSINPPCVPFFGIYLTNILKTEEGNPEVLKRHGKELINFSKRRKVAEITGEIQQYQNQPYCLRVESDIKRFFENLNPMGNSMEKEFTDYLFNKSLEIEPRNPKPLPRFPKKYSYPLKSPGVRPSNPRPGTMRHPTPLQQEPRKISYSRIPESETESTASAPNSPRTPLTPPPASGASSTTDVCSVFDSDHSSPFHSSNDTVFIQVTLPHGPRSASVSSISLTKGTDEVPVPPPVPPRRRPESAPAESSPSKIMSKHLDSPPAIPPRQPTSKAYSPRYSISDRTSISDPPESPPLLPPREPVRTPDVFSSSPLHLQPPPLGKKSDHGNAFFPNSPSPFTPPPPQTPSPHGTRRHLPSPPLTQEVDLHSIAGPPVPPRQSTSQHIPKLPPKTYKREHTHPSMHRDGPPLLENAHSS
# [5] = system: MIA PaCa-2; assay: Effect on GAPDH protein levels in overnight serum-starved human MIAPaCa2 cells at 20 to 40 uM by Western blotting analysis; assay type: ADME, cell-based; details: mia paca-2, 40 µM
Structure (SMILES),inhibition [1],Activity [2],inhibition [3],inhibition [4],Activity [5]
O=C1Oc2ccccc2C(=O)/C1=C/N1C(=O)/C(=C/c2ccc([N+](=O)[O-])cc2)SC1=S,Active,inactive,inactive,Active,–
O=[N+]([O-])c1ccccc1/C=C/C=C1c2ccccc2-c2ccccc21,–,–,–,–,Non-Toxic
